Counter-ions that a name gives are not always drawn.
Test system: ddY female mouse
Experiment: Effect of test compound on hypoxia (antihypoxic activity)
Type: in vivo
Settings: po, 100 mg/kg orally, placed in chamber (4% oxygen, 96% nitrogen) after 1 hour from the administration, survival time relative to control, read-out: Antihypoxic activity (%)
Procedure: A test compound dissolved in physiological saline (100 mg/kg) was orally administered to a ddY female mouse (5-6 weeks old, each group consisting of 10 mice). After 1 (or 30 minutes*) hour from the administration, each mouse was placed in a 300-ml glass chamber, and a gas mixture consisting of 4% of oxygen and 96% of nitrogen was passed through the chamber at a rate of 5 liters/min. A time from the start of gas passing to the death of each mouse was measured.
To a control mice group was orally administered only physiological saline.
The antihypoxic activity of the test compound was calculated from the following formula: [formula]

| Structure (SMILES) | response vs control in vivo at 100 mg/kg |
| --- | --- |
| OC(COCCN1CCCCC1)c1cccc(Cl)c1 (centres unmarked) [compound 36] | 139% |
| CN(C)CCOCC(O)c1ccc(OCc2ccc(Cl)cc2)cc1 (centres unmarked) [compound 49] | 151% |
| CN(C)CCOCC(O)c1ccc(-c2ccccc2)cc1 (centres unmarked) [compound 56] | 182% |
| Cc1cccc(C(O)COCC2CNCCO2)c1 (centres unmarked) [compound 152] | 180% |
| OC(COCC1CNCCO1)c1cccc(Cl)c1 (centres unmarked) [compound 153] | 185% |
| OC(COCCN1CCN(C(c2ccccc2)c2ccccc2)CC1)c1ccccc1 (centres unmarked) [compound 167] | 165% |
| CC(=O)N(C)CCOCC(O)c1ccccc1 (centres unmarked) [compound 181] | 132% |
| COC(COCCN(C)C)c1ccc(OCc2ccccc2)cc1 (centres unmarked) [compound 213] | 149% |
| Cn1cncc1COCC(O)c1ccc(OCc2ccccc2)cc1 (centres unmarked) [compound 215, 1-(4-Benzyloxyphenyl)-2-[(1-methylimidazol-5-yl)-methoxy]ethanol] | 197% |
| CN(C)CCOCC(O)c1ccc(F)c2ccccc12 (centres unmarked) [compound 231] | 246% |
| Cc1ccc(C(O)COCCN(C)C)c2ccccc12 (centres unmarked) [compound 232] | 150% |
| OC(COCCN1CCCCC1)c1ccc2ccccc2c1 (centres unmarked) [compound 238] | 123% |
| CCN(CC)CCOCC(O)c1cccc2ccccc12 (centres unmarked) [compound 243] | 159% |

Same assay, conditions: po, 0.5 h, 100 mg/kg orally, placed in chamber (4% oxygen, 96% nitrogen) after 30 minutes from the administration (values marked *), survival time relative to control, read-out: Antihypoxic activity (%)

| Structure (SMILES) | response vs control in vivo at 100 mg/kg |
| --- | --- |
| Cc1ccccc1C(O)COCCN(C)C (centres unmarked) [compound 14] | 184% |
| CN(C)CCOCC(O)c1ccc(C(C)(C)C)cc1 (centres unmarked) [compound 19] | 168% |
| Cc1cccc(C(O)COCCCCN(C)C)c1 (centres unmarked) [compound 23] | 241% |
| Cc1cc(C)cc(C(O)COCCN(C)C)c1 (centres unmarked) [compound 27] | 201% |
| CN(C)CCOCC(O)c1ccc(OCc2ccccn2)cc1 (centres unmarked) [compound 84] | 175% |
| CN(C)CCOCC(O)c1c(Cl)cccc1Cl (centres unmarked) [compound 96] | 176% |
| COc1cc(C(O)COCCN(C)C)ccc1OCc1ccccc1 (centres unmarked) [compound 98] | 164% |
| OC(COCCN1CCOCC1)c1ccc(OCc2ccccc2)cc1 (centres unmarked) [compound 100] | 171% |
| NCCOCC(O)c1ccccc1 (centres unmarked) [compound 102] | 140% |
| Cc1cccc([C@@H](O)COCCN(C)C)c1 [compound 104] | 160% |
| OC(COCc1cccnc1)c1ccc(OCc2ccccc2)cc1 (centres unmarked) [compound 121] | 149% |
| OC(COCc1ccccn1)c1ccccc1 (centres unmarked) [compound 122] | 142% |
| OC(COCc1ccncc1)c1ccccc1 (centres unmarked) [compound 123] | 140% |
| Cc1cccc(C(O)COCc2cccnc2)c1 (centres unmarked) [compound 125] | 172% |
| O[C@H](COCc1cccnc1)c1ccccc1 [compound 129] | 158% |
| COc1ccc(C(O)COCc2cccnc2)cc1 (centres unmarked) [compound 131] | 167% |
| O[C@@H](COCC1CNCCS1)c1ccccc1 (some centres unmarked) [compound 134] | 201% |
| OC(COCc1c[nH]cn1)c1ccc(OCc2ccccc2)cc1 (centres unmarked) [compound 137] | 163% |
| OC(COCc1cccnc1)c1cccc(Oc2ccccc2)c1 (centres unmarked) [compound 139] | 162% |
| CC(=O)OC(COCCN(C)C)c1cccc(C)c1 (centres unmarked) [compound 180] | 176% |
| CC(=O)OC(COCCN(C)C)c1ccc(-c2ccccc2)cc1 (centres unmarked) [compound 187] | 153% |
| CC(=O)OC(COCc1cccnc1)c1ccccc1 (centres unmarked) [compound 188] | 144% |
| CN1CCN(CCOCC(O)c2ccc(OCc3ccccc3)cc2)CC1 (centres unmarked) [compound 195] | 176% |
| CN(CCOCC(O)c1ccc(OCc2ccccc2)cc1)C1CC1 (centres unmarked) [compound 203] | 177% |
| OC(COCCNC1CC1)c1ccc(OCc2ccccc2)cc1 (centres unmarked) [compound 204] | 176% |

| Structure (SMILES) | response vs control in vivo at 100 mg/kg |
| --- | --- |
| Cc1cccc(C(O)COCCNC2CC2)c1 (centres unmarked) [compound 208] | 242% |
| CC(C)(C)NCCOCC(O)c1ccccc1 (centres unmarked) [compound 211] | 177% |
| O[C@H](COC[C@@H]1CNCCO1)c1ccccc1 [compound 218, (1S,2'S)-1-phenyl-2-[(morpholin-2-yl)methoxy]ethanol oxalate] | 157% |
| CC(CN(C)C)OCC(O)c1cccc2ccccc12 (centres unmarked) [compound 250] | 145% |
| CN(C)CCOCC(O)c1ccc2c(c1)CCC2 (centres unmarked) [compound 252] | 190% |
| CN1CCC=C(COCC(O)c2cccc3ccccc23)C1 (centres unmarked) [compound 271] | 150% |
| OC(COCc1cccnc1)c1ccc2ccccc2c1 (centres unmarked) [compound 272] | 185% |
| CN(C)CCOCC(O)c1cccc2ccsc12 (centres unmarked) [compound 320] | 212% |
| OC(COCCN1CCCCC1)c1ccc2sccc2c1 (centres unmarked) [compound 330] | 242% |
| CN(C)CCOCC(O)c1ccc2c(c1)CCS2 (centres unmarked) [compound 332] | 230% |
| CC(COCC(O)c1ccc2sccc2c1)N(C)C (centres unmarked) [compound 338] | 144% |
| OC(COCc1cccnc1)c1ccc2occc2c1 (centres unmarked) [compound 339, 1-(benzo[b]furan-5-yl)-2-(pyridin-3-yl-methxoy)ethanol] | 131% |
| OC(COCc1cccnc1)c1ccc2sccc2c1 (centres unmarked) [compound 340] | 163% |
| OC(COCC1CNCCO1)c1ccc2sccc2c1 (centres unmarked) [compound 343] | 160% |
| CN1CCCC(COCC(O)c2ccc3sccc3c2)C1 (centres unmarked) [compound 344] | 268% |
| CN1CCC=C(COCC(O)c2ccc3sccc3c2)C1 (centres unmarked) [compound 345] | 185% |
| OC(COCCNC1CC1)c1ccc2sccc2c1 (centres unmarked) [compound 348] | 251% |
| CN1CCN(CCOCC(O)c2ccc3sccc3c2)CC1 (centres unmarked) [compound 349] | 209% |
| OC(COCCNC12CC3CC(CC(C3)C1)C2)c1ccc2sccc2c1 (centres unmarked) [compound 353] | 132% |
| NCCOCC(O)c1ccc2sccc2c1 (centres unmarked) [compound 357, 1-(benzo[b]thiophen-5-yl)-2-(2-aminoethoxy)ethanol 1/2 fumarate] | 189% |
| OC(COCc1c[nH]cn1)c1ccc2sccc2c1 (centres unmarked) [compound 358, 1-(benzo[b]thiophen-5-yl)-2-[(imidazolyl)methoxy]ethanol] | 211% |
| CN(C)CCOCC(O)c1ccc2[nH]ccc2c1 (centres unmarked) [compound 365] | 155% |
| OC(COCCCNC1CC1)c1ccc2sccc2c1 (centres unmarked) [compound 383] | 293% |
| OC(COCCCN1CCCCC1)c1ccc2sccc2c1 (centres unmarked) [compound 387] | 228% |
| OC(COCCN1CCN(Cc2ccccc2)CC1)c1ccc2occc2c1 (centres unmarked) [compound 394, dihydrochloride] | 241% |

Same assay, conditions: po, 0.5 h, read-out: Antihypoxic activity (%)

| Structure (SMILES) | response vs control in vivo at 100 mg/kg |
| --- | --- |
| CN1CCN(CCOCC(O)c2cccc3ccccc23)CC1 (centres unmarked) [compound 259, 2-[2-(4-methylpiperazin-1-yl)ethoxy]-1-(1-naphthyl)ethanol dihydrochloride] | 155% |
| CN(C)CCOCC(O)c1cccc2cccc([N+](=O)[O-])c12 (centres unmarked) [compound 289, 2-[2-(N,N-dimethylamino)ethoxy]-1-(8-nitro-1-naphthyl)ethanol oxalate] | 157% |
| CNCCOCC(O)c1ccc2sccc2c1 (centres unmarked) [compound 347, 1-(benzo[b]thiophen-5-yl)-2-(N-methylaminoethoxy)ethanol hydrochloride] | 162% |
| CCN(CC)CCOCC(O)c1ccc2sccc2c1 (centres unmarked) [compound 388, 2-[2-(N,N-diethylamino)ethoxy]-1-(benzo[b]thiophen-5-yl)ethanol hydrochloride] | 213% |

Same assay, conditions: po, 1 h, read-out: Antihypoxic activity (%)

| Structure (SMILES) | response vs control in vivo at 100 mg/kg |
| --- | --- |
| CNCCOCC(O)c1cccc2ccccc12 (centres unmarked) [compound 261, 2-[2-(N-methylamino)ethoxy]-1-(1-naphthyl)ethanol hydrochloride] | 126% |

Test system: ddY male mice
Experiment: Acute toxicity
Type: in vivo, mouse
Settings: 50 mg/kg intravenously, group of 3 ddY male mice
From the text: A test compound dissolved in physiological saline was intravenously administered to a group of 3 ddY male mice (5-6 weeks old) to examine the acute toxicity of the test compound.

| Structure (SMILES) | Acute toxicity |
| --- | --- |
| CN(C)CCOCC(O)c1ccc(O)cc1.Cl (centres unmarked) [Compound No. 170, 1-(4-hydroxyphenyl)-2-[2-(N,N-dimethylamino)ethoxy]ethanol hydrochloride] | no death case |
| OC(COCCN1CCOCC1)c1ccccc1 (centres unmarked) [compound 8] | no death case |
| Cc1cccc(C(O)COCCN2CCCC2=O)c1 (centres unmarked) [compound 25] | no death case |
| COc1ccc(C(O)COCCN(C)C)cc1 (centres unmarked) [compound 44] | no death case |
| CN(C)CCOCC(O)c1ccc2c(c1)OCO2 (centres unmarked) [compound 52] | no death case |
| CN(C)CCOCC(O)c1cccc(Oc2ccccc2)c1 (centres unmarked) [compound 53] | no death case |
| OC(COCC1CN(Cc2ccccc2)CCO1)c1ccc(Oc2ccccc2)cc1 (centres unmarked) [compound 147] | no death case |
| OCC1CCCN1CCOCC(O)c1ccccc1 (centres unmarked) [compound 159] | no death case |
| CN(CCOCC(O)c1ccccc1)C(=O)C1CCC(=O)N1 (centres unmarked) [compound 160] | no death case |
